As usually defined, the IC50 is the midpoint of a concentration-inhibition curve.

Among the data in patent publication US10745382B2 (BRISTOL-MYERS SQUIBB COMPANY, priority 2015, dated 2020) are IC50 values, retold here.

The assay concerns the target T1, PD-1/PD-L1 (Homo sapiens, UniProt Q9NZQ7).
T1 construct: made in house; host or cells: HEK293T
As to the kind of experiment: PD-1/PD-L1 Homogenous Time-Resolved Fluorescence (HTRF) binding assay. As to conditions: PD-L1-His 10 nM, PD-1-Ig 20 nM; value given as range class; read-out: Range or IC50. A digest of the protocol:
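Read-out is time-resolved FRET between europium cryptate-labelled anti-Ig (1 nM final) and APC-labelled anti-His (20 nM final), both dispensed onto the binding mix. Assay buffer: dPBS containing 0.1% bovine serum albumin and 0.05% Tween-20.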
(In general: TR-FRET usually uses a lanthanide donor and a delayed reading to cut background.)

T1 sequence (Q9NZQ7 with tags, fused parts or gaps): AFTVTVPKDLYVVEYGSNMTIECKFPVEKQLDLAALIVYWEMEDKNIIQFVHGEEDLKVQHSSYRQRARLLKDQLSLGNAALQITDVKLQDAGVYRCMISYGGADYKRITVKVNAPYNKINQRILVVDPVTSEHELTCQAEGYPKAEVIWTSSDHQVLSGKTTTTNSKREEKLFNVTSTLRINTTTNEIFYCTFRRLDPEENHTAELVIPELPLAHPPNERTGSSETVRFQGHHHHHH

With `COC(=O)C1CN(CCCOc2cccc(-c3cccc(COc4cc(OCc5cncc(S(C)(=O)=O)c5)c(CN[C@](C)(CO)C(=O)O)cc4Cl)c3C)c2C)CC1O` (stereo partly drawn) [Example 1073, (2R)-2-((5-chloro-4-((3′-(3-(3-hydroxy-4-(methoxycarbonyl)pyrrolidin-1-yl)propoxy)-2,2′-dimethyl-[1,1′-biphenyl]-3-yl)methoxy)-2-((5-(methylsulfonyl)pyridin-3-yl)methoxy)benzyl)amino)-3-hydroxy-2-methylpropanoic Acid], the IC50 was in the range of 0.21 to 10 nM.

`Cc1c(COc2cc(OCc3cncc(S(C)(=O)=O)c3)c(CN3CCCC[C@H]3C(=O)O)cc2Cl)cccc1-c1cccc(OCCCN2CC(O)C(C(=O)O)C2)c1C` (stereo partly drawn) [Example 1074, (2S)-1-(4-((3′-(3-(3-carboxy-4-hydroxypyrrolidin-1-yl)propoxy)-2,2′-dimethyl-[1,1′-biphenyl]-3-yl)methoxy)-5-chloro-2-((5-(methylsulfonyl)pyridin-3-yl)methoxy)benzyl)piperidine-2-carboxylic Acid]: the IC50 is 0.21 to 10 nM.

For `Cc1c(COc2cc(OCc3cncc(S(C)(=O)=O)c3)c(CN[C@](C)(CO)C(=O)O)cc2Cl)cccc1-c1cccc(OCCCN2CC(O)C(C(=O)O)C2)c1C` (stereo partly drawn) [Example 1075, 1-(3-((3′-((4-((((R)-2-carboxy-1-hydroxypropan-2-yl)amino)methyl)-2-chloro-5-((5-(methylsulfonyl)pyridin-3-yl)methoxy)phenoxy)methyl)-2,2′-dimethyl-[1,1′-biphenyl]-3-yl)oxy)propyl)-4-hydroxypyrrolidine-3-carboxylic Acid], the IC50 fell in the range of 0.21 to 10 nM.

For the compound `CNC(=O)C1CCN(CCCOc2cccc(-c3cccc(COc4cc(OCc5cncc(C#N)c5)c(CN[C@](C)(CO)C(=O)O)cc4Cl)c3C)c2Cl)CC1` [Example 1076, (R)-2-((5-chloro-4-((2′-chloro-2-methyl-3′-(3-(4-(methylcarbamoyl)piperidin-1-yl)propoxy)-[1,1′-biphenyl]-3-yl)methoxy)-2-((5-cyanopyridin-3-yl)methoxy)benzyl)amino)-3-hydroxy-2-methylpropanoic Acid], the IC50 lay in the range of 0.21 to 10 nM.

As for `CNC(=O)C1CCN(CCCOc2cccc(-c3cccc(COc4cc(OCc5cncc(C#N)c5)c(CN5CCCC[C@H]5C(=O)O)cc4Cl)c3C)c2Cl)CC1` [Example 1077, (S)-1-(5-chloro-4-((2′-chloro-2-methyl-3′-(3-(4-(methylcarbamoyl)piperidin-1-yl)propoxy)-[1,1′-biphenyl]-3-yl)methoxy)-2-((5-cyanopyridin-3-yl)methoxy)benzyl)piperidine-2-carboxylic Acid], the 50% inhibitory concentration (IC50) fell in the range of 0.21 to 10 nM.

Take `CC(=O)NC1CCN(CCCOc2cccc(-c3cccc(COc4cc(OCc5cncc(C#N)c5)c(CN5CCCC[C@H]5C(=O)O)cc4Cl)c3C)c2Cl)CC1` [Example 1078, (S)-1-(4-((3′-(3-(4-acetamidopiperidin-1-yl)propoxy)-2′-chloro-2-methyl-[1,1′-biphenyl]-3-yl)methoxy)-5-chloro-2-((5-cyanopyridin-3-yl)methoxy)benzyl)piperidine-2-carboxylic Acid]: the IC50 lay in the range of 0.21 to 10 nM.

`CC(=O)NC1CCN(CCCOc2cccc(-c3cccc(COc4cc(OCc5cncc(C#N)c5)c(CN[C@](C)(CO)C(=O)O)cc4Cl)c3C)c2Cl)CC1` [Example 1079, (R)-2-((4-((3′-(3-(4-acetamidopiperidin-1-yl)propoxy)-2′-chloro-2-methyl-[1,1′-biphenyl]-3-yl)methoxy)-5-chloro-2-((5-cyanopyridin-3-yl)methoxy)benzyl)amino)-3-hydroxy-2-methylpropanoic Acid]: the IC50 lay within 0.21 to 10 nM.

As for `Cc1c(COc2cc(OCc3cncc(C#N)c3)c(CN[C@H](CO)C(=O)O)cc2Cl)cccc1-c1cccc(OCCCN2CC(O)C2)c1C` [Example 1080, (R)-2-((5-chloro-2-((5-cyanopyridin-3-yl)methoxy)-4-((3′-(3-(3-hydroxyazetidin-1-yl)propoxy)-2,2′-dimethyl-[1,1′-biphenyl]-3-yl)methoxy)benzyl)amino)-3-hydroxypropanoic Acid], the IC50 was 0.21 to 10 nM.

As to `Cc1c(COc2cc(OCc3cncc(S(C)(=O)=O)c3)c(CN3CCCC[C@H]3C(=O)O)cc2Cl)cccc1-c1cccc(OCCCN2C[C@H](O)C[C@H]2C(=O)O)c1Cl` [Example 1081, (S)-1-(4-((3′-(3-((2S,4R)-2-carboxy-4-hydroxypyrrolidin-1-yl)propoxy)-2′-chloro-2-methyl-[1,1′-biphenyl]-3-yl)methoxy)-5-chloro-2-((5-(methylsulfonyl)pyridin-3-yl)methoxy)benzyl)piperidine-2-carboxylic Acid], the IC50 lay in the range of 0.21 to 10 nM.

Take `COC(=O)[C@@H]1CCN(CCCOc2cccc(-c3cccc(COc4cc(OCc5cncc(S(C)(=O)=O)c5)c(CN[C@](C)(CO)C(=O)O)cc4Cl)c3C)c2C)C1` [Example 1082, (R)-2-((5-chloro-4-((3′-(3-((R)-3-(methoxycarbonyl)pyrrolidin-1-yl)propoxy)-2,2′-dimethyl-[1,1′-biphenyl]-3-yl)methoxy)-2-((5-(methylsulfonyl)pyridin-3-yl)methoxy)benzyl)amino)-3-hydroxy-2-methylpropanoic Acid]: the half-maximal inhibitory concentration (IC50) fell in the range of 0.21 to 10 nM.

Turning to `Cc1c(COc2cc(OCc3cncc(S(C)(=O)=O)c3)c(CN[C@](C)(CO)C(=O)O)cc2Cl)cccc1-c1cccc(OCCCN2CC[C@@H](C(=O)O)C2)c1C` [Example 1083, (R)-1-(3-((3′-((4-((((R)-2-carboxy-1-hydroxypropan-2-yl)amino)methyl)-2-chloro-5-((5-(methylsulfonyl)pyridin-3-yl)methoxy)phenoxy)methyl)-2,2′-dimethyl-[1,1′-biphenyl]-3-yl)oxy)propyl)pyrrolidine-3-carboxylic Acid], the IC50 fell in the range of 0.21 to 10 nM.

In the case of `Cc1c(COc2cc(OCc3cncc(S(C)(=O)=O)c3)c(CN3CCCC[C@H]3C(=O)O)cc2Cl)cccc1-c1cccc(OCCCN2CC[C@@H](C(=O)O)C2)c1C` [Example 1084, (S)-1-(4-((3′-(3-((R)-3-carboxypyrrolidin-1-yl)propoxy)-2,2′-dimethyl-[1,1′-biphenyl]-3-yl)methoxy)-5-chloro-2-((5-(methylsulfonyl)pyridin-3-yl)methoxy)benzyl)piperidine-2-carboxylic Acid], the IC50 was in the range of 0.21 to 10 nM.

Regarding `Cc1c(COc2cc(OCc3cncc(C#N)c3)c(CN3CCCC[C@H]3C(=O)O)cc2Cl)cccc1-c1cccc(OCCCN2C[C@H](O)C[C@H]2C(N)=O)c1Cl` [Example 1085, (S)-1-(4-((3′-(3-((2S,4R)-2-carbamoyl-4-hydroxypyrrolidin-1-yl)propoxy)-2′-chloro-2-methyl-[1,1′-biphenyl]-3-yl)methoxy)-5-chloro-2-((5-cyanopyridin-3-yl)methoxy)benzyl)piperidine-2-carboxylic Acid], the 50% inhibitory concentration (IC50) lay within 0.21 to 10 nM.

With `Cc1c(COc2cc(OCc3cncc(C#N)c3)c(CN[C@](C)(CO)C(=O)O)cc2Cl)cccc1-c1cccc(OCCCN2C[C@H](O)C[C@H]2C(N)=O)c1Cl` [Example 1086, (R)-2-((4-((3′-(3-((2S,4R)-2-carbamoyl-4-hydroxypyrrolidin-1-yl)propoxy)-2′-chloro-2-methyl-[1,1′-biphenyl]-3-yl)methoxy)-5-chloro-2-((5-cyanopyridin-3-yl)methoxy)benzyl)amino)-3-hydroxy-2-methylpropanoic Acid], the IC50 was 0.21 to 10 nM.

On to `Cc1c(COc2cc(OCc3cncc(C#N)c3)c(CN3CCCC[C@H]3C(=O)O)cc2Cl)cccc1-c1cccc(OC/C=C/CN2CC[C@@H](O)C2)c1` [Example 1087, (S)-1-(5-chloro-2-((5-cyanopyridin-3-yl)methoxy)-4-((3′-(((E)-4-((R)-3-hydroxypyrrolidin-1-yl)but-2-en-1-yl)oxy)-2-methyl-[1,1′-biphenyl]-3-yl)methoxy)benzyl)piperidine-2-carboxylic Acid], for which the IC50 lay in the range of 10 to 100 nM.

Consider `Cc1c(COc2cc(OCc3cncc(C#N)c3)c(CN3CCCC[C@H]3C(=O)O)cc2Cl)cccc1-c1cccc(OCCCN2CC[C@@](O)(c3ccc(Cl)cc3)[C@](C)(O)C2)c1Cl` [Example 1088, (S)-1-(5-chloro-4-((2′-chloro-3′-(3-((3R,4R)-4-(4-chlorophenyl)-3,4-dihydroxy-3-methylpiperidin-1-yl)propoxy)-2-methyl-[1,1′-biphenyl]-3-yl)methoxy)-2-((5-cyanopyridin-3-yl)methoxy)benzyl)piperidine-2-carboxylic Acid], for which the IC50 is 0.21 to 10 nM.

Regarding `Cc1c(COc2cc(OCc3cncc(C#N)c3)c(CN[C@H](CO)C(=O)O)cc2Cl)cccc1-c1cccc(OCCCN2CC[C@@](O)(c3ccc(Cl)cc3)[C@](C)(O)C2)c1Cl` [Example 1089, (5-chloro-4-((2′-chloro-3′-(3-((3R,4R)-4-(4-chlorophenyl)-3,4-dihydroxy-3-methylpiperidin-1-yl)propoxy)-2-methyl-[1,1′-biphenyl]-3-yl)methoxy)-2-((5-cyanopyridin-3-yl)methoxy)benzyl)-D-serine], the IC50 fell in the range of 0.21 to 10 nM.

Regarding `Cc1c(COc2cc(OCc3cncc(S(C)(=O)=O)c3)c(CN3CCCC[C@H]3C(=O)O)cc2Cl)cccc1-c1cccc(OCCCN2CC[C@H](O)C2)c1C` [Example 1090, (S)-1-(5-chloro-4-((3′-(3-((S)-3-hydroxypyrrolidin-1-yl)propoxy)-2,2′-dimethyl-[1,1′-biphenyl]-3-yl)methoxy)-2-((5-(methylsulfonyl)pyridin-3-yl)methoxy)benzyl)piperidine-2-carboxylic Acid], the IC50 fell in the range of 0.21 to 10 nM.

Turning to `COC(=O)C1(O)CCN(CCCOc2cccc(-c3cccc(COc4cc(OCc5cncc(C#N)c5)c(CN5CCC(O)(C(=O)OC)CC5)cc4Cl)c3C)c2C)CC1` [Example 1091, methyl 1-(5-chloro-2-((5-cyanopyridin-3-yl)methoxy)-4-((3′-(3-(4-hydroxy-4-(methoxycarbonyl)piperidin-1-yl)propoxy)-2,2′-dimethyl-[1,1′-biphenyl]-3-yl)methoxy)benzyl)-4-hydroxypiperidine-4-carboxylate], the 50% inhibitory concentration (IC50) lay in the range of 0.21 to 10 nM.
